Read-outs that look alike come from different tables or passages of the source.
Experiments:
[1] = Methylselenol (CH3SeH) release by hydrolysis, quantified with DTNB (Ellman's reagent); format: physicochemical; settings: 100 μM compound, 100 μM DTNB; for CH3SeH release / hydrolysis rate: 100 mM phosphate buffer, 1 mM EDTA, pH 8, followed over 72 h
From the text: The new compounds were designed as CH3SeH precursors. The chemical features of the selenoester functional group facilitate a nucleophilic attack (i.e., with water) which would deliver the CH3SeH residue. In order to verify if CH3SeH could be released from the molecules by hydrolysis and if the rate differed among the compounds, the reaction of CH3SeH with 5,5′-dithiobis(2-nitrobenzoic acid) (DTNB or Ellman’s reagent) in aqueous environment was monitored. Briefly, when the disulfide bridge of DTNB reacts with thiols or selenols, 2-nitro-5-thiobenzoate (TNB^2−) is released and the mixed disulfide or selenylsulfide is formed. Each released CH3SeH produces one yellow TNB^2− species, whose absorbance can be quantified at 412 nm (Figure 2A).
A stock solution of the compounds was prepared in anhydrous DMSO (10 mM). The compounds were placed in a 96-well plate in a final concentration of 100 μM. Reaction started after adding 200 μL of an aqueous 100 mM Na2HPO4 buffer (1 mM EDTA, pH = 8), containing 100 μM of DTNB from a freshly prepared 10 mM ethanolic stock, which were added just before starting the reaction. The DTNB concentration was quantified with a cysteine standard curve ([…]). Blanks for the compounds in the absence of DTNB were also included as well as a blank to measure the slow but spontaneous hydrolysis of DTNB, which was further subtracted from all the values. Absorbance was read at 412 nm in a FLUOstar Omega microplate reader (BMG LabTech, Ortenberg, Germany). Results represent means of triplicate values ± SD.
Figure 2 CH3SeH release rates are dependent on the chemical features of the molecule. Released CH3SeH was quantified through reaction with Ellman’s reagent (DTNB). (A) Proposed reaction between CH3SeH and DTNB; (B) Quantification of TNB^2− at different times. The compounds were tested at 100 μM in 200 μL of 100 mM phosphate buffer (1 mM EDTA, pH = 8). DTNB concentration was also 100 μM. Absorbance was followed at 412 nm over 72 h. A cysteine standard curve (7.5–150 μM) was used to calculate the concentration of TNB^2− over time. Compounds showing less than 15% hydrolysis at 72 h are not included, except for compound 5 as example. Error bars indicate SD of triplicates.

[2] = tested on: PC-3 (prostate adenocarcinoma); assay: MTT viability assay, PC-3; format: cell-based
Experimental: (§1) The novel compounds were tested against a panel of different cancer lines: PC-3 (prostate adenocarcinoma), MCF7 (mammary adenocarcinoma), HTB-54 (lung carcinoma), K-562 (chronic myelogenous leukemia) and HT-29 (colorectal adenocarcinoma). Two non-malignant cell lines, BEAS-2B (bronchial epithelial) and 184B5 (mammary epithelial) were also included to evaluate the toxicity of the novel synthesized compounds. The antiproliferative activity was measured with the [3-(4,5-dimethylthiazol-2-yl)-2,5-diphenyltetrazolium bromide] (MTT) assay after 72 h treatment. Six concentrations ranging from 0.1 to 100 μM were tested. MSA is largely known as the main CH3SeH putative precursor and was therefore included as positive control. The following parameters were calculated: GI50 (concentration which reduces the growth by 50%), TGI (concentration completely inhibiting growth) and LC50 (concentration that kills 50% of the cells).
(§2) All cells were purchased from the American Type Culture Collection (ATCC, Barcelona, Spain). HT-29 (colorectal adenocarcinoma), HTB-54 (grade III lung carcinoma), MCF7 (mammary adenocarcinoma), PC-3 (grade IV prostate adenocarcinoma) and K-562 (chronic myelogenous leukemia) were cultured in RPMI (Gibco, Madrid, Spain), 10% FBS (Gibco), 100 units/mL penicillin and 100 μg/mL streptomycin (Gibco). BEAS-2B cell line (normal epithelial lung) was cultured in DMEM (Gibco), 10% FBS, 100 units/mL penicillin and 100 μg/mL streptomycin. 184B5 (normal mammary gland) cell line was cultured in DMEM:F12 supplemented with 5% FBS, 1 × ITS (Lonza, Barcelona, Spain), 100 nM hydrocortisone (Sigma-Aldrich), 2 mM sodium pyruvate (Lonza), 20 ng/mL EGF (Sigma-Aldrich), 0.3 nM trans-retinoic acid (Sigma-Aldrich), 100 units/mL penicillin and 100 µg/mL streptomycin. Cells were cultured at 37 °C under 5% CO2.
(§3) Cell viability after treatment was assessed by the well-known 3-(4,5-dimethyl-thiazol-2-yl)-2,5-diphenyltetrazolium bromide (MTT, Sigma-Aldrich) assay. Briefly, 10,000 cells were seeded in 96-well plates, treated and incubated for 72 h. Dilutions of the compounds in cell medium were freshly prepared from a 0.01 M stock in DMSO. After treatment, 50 μL of MTT solution in PBS (2 mg/mL) were added and cells were incubated for 4 h. Medium was removed and 150 μL of DMSO was added to dissolve the formed formazan crystals. Absorbance was read at 550 nm in a microplate absorbance reader (Sunrise, Tecan, Männedorf, Switzerland).

[3] = tested on: MCF7 (mammary adenocarcinoma); assay: MTT viability assay, MCF7; format: cell-based; settings: MCF7, 72 h
Experimental: as §1, §2, §3

[4] = MTT viability assay, 184B5; format: cell-based; settings: human
Experimental: as §1, §2, §3

[5] = tested on: 184B5 (non-malignant mammary epithelium); assay: MTT viability assay, 184B5; format: cell-based; settings: 184B5 non-malignant, 72 h, MTT; for CC50: read-out: LC50 (the source's name)
Experimental: as §1, §2, §3

[6] = tested on: K-562 (chronic myelogenous leukemia); assay: MTT viability assay, K-562; format: cell-based
Experimental: as §1, §2, §3

[7] = tested on: HT-29 (colorectal adenocarcinoma); assay: MTT viability assay, HT-29; format: cell-based; settings: HT-29, 72 h
Experimental: as §1, §2, §3

HTB-54 (lung carcinoma) = assay: MTT viability assay, HTB-54; format: cell-based; settings: HTB-54, 72 h
Experimental: as §1, §2, §3

[8] = MTT viability assay, BEAS-2B; format: cell-based; settings: human
Experimental: as §1, §2, §3

[9] = tested on: BEAS-2B (non-malignant bronchial epithelial); assay: MTT viability assay, BEAS-2B; format: cell-based; settings: BEAS-2B non-malignant, 72 h, MTT; for CC50: read-out: LC50 (the source's name)
Experimental: as §1, §2, §3

[10] = tested on: thioredoxin reductase (TrxR1); assay: Thioredoxin reductase activity assay (NADPH consumption); format: biochemical; settings: 100 nM TrxR1, 227 μM NADPH, TE buffer pH 8, 45 min
Experimental: The assay was performed as previously described, but in a final volume of 200 μL in a 96-well plate. Reaction started after addition of 133 μL of TE buffer (20 mM Tris, 2 mM EDTA, pH = 8), 0.227 mM NADPH (freshly prepared) to different concentrations of compounds solved in DMSO and TrxR1 (final concentration 100 nM). NADPH consumption was followed measuring absorbance decrease at 340 nm in a VersaMax microplate reader (Molecular Devices, Sunnyvale, CA, USA) over 45 min. A background sample with DMSO without the compounds was included and subtracted from the values.
(§4) Figure 7 Compounds 5 and 15 are substrates for thioredoxin reductase but not for the glutathione-glutaredoxin system. (A) NADPH consumption indicating reduction of compounds 5, 15 or MSA as control by thioredoxin reductase. The reaction mixture contained 100 nM TrxR1, 227 μM NADPH and the corresponding amount of compound in TE buffer (20 mM Tris, 2 mM EDTA pH = 8); (B) NADPH consumption indicating reduction of MSA by glutathione in the presence or absence of glutaredoxin. The reaction mixture contained the corresponding amount of compound, 0.1 M Tris, 2 mM EDTA pH = 8, 0.1 mg/mL BSA, 1 mM GSH, 200 μM NADPH, 0.008 OD/mL yeast GR and 1 μM hGrx1 when required. Only results for MSA are shown, as compounds 5 and 15 were not reduced.

[11] = tested on: glutathione-glutaredoxin (GSH-Grx) system; assay: Glutaredoxin/glutathione assay (NADPH consumption); format: biochemical; settings: 1 mM GSH, 200 μM NADPH, yeast GR, 1 μM hGrx1 when required, 45 min
Experimental: The assay was performed as previously described, with minor modifications and adapted for a 96-well plate. A mixture of 0.1 M Tris pH 8, 2 mM EDTA pH = 8, 0.1 mg/mL BSA, 1 mM GSH, 200 μM NADPH, and 0.008 OD/mL yeast GR was prepared (all reagents were purchased from Sigma-Aldrich). Reactions were performed with 1 μM hGrx1 (IMCO Corporation, Stockholm, Sweden) when corresponding and different concentrations of the compounds. A 100 μL mixture was added, and the final volume was adjusted to 110 μL per well. Consumption of NADPH was monitored at A340 on a VersaMax microplate reader (Molecular Devices) for 45 min.
as §4

[12] = PC-3, 72 h, MTT, read-out: LC50 (the source's name)
[13] = MTT, read-out: LC50 (the source's name)
[14] = K-562, 72 h, MTT, read-out: LC50 (the source's name)

Compound | GI50 ([2]; PC-3, 72 h, MTT) [µM] | TGI ([2]; PC-3, 72 h, MTT) [µM] | TGI ([3]; MTT) [µM] | TGI [5] [µM] | TGI ([6]; K-562, 72 h, MTT) [µM] | TGI ([7]; MTT) [µM] | GI50 (HTB-54 (lung carcinoma); MTT) [µM] | TGI (HTB-54 (lung carcinoma); MTT) [µM] | TGI [9] [µM] | CC50 [2, 12] [µM] | GI50 ([3]; MTT) [µM] | CC50 [3, 13] [µM] | GI50 [5] [µM] | CC50 [5] [µM] | CC50 (HTB-54 (lung carcinoma); [13]) [µM] | GI50 [9] [µM] | CC50 [9] [µM] | CH3SeH release / hydrolysis rate [1] | GI50 ([6]; K-562, 72 h, MTT) [µM] | CC50 [6, 14] [µM] | further results
C[Se]C(=O)c1cnccn1 [Compound 3, Methyl pyrazinecarboselenoate] | 5.4 ± 1.1 | 15.3 ± 1.7 | 7.2 ± 1.0 | 6.6 ± 0.9 | 59.1 ± 2.1 | 9.1 ± 0.8 | 6.2 ± 1.5 | 21.1 ± 4.1 | 6.1 ± 0.5 |  |  |  |  |  |  |  |  |  |  |  | CH3SeH release at 24 h ([1]; phosphate buffer pH 8, 24 h): completely released; CC50 ([2]; 72 h, read-out: LC50): 60.5 ± 4.3 µM; CC50 ([3]; Homo sapiens, read-out: LC50): 40.1 ± 4.4 µM; GI50 ([3]; Homo sapiens, MTT): 3.5 ± 0.8 µM; CC50 at 72 h [4]: 17.6 ± 4.4 µM; GI50 ([5]; Homo sapiens): 3.1 ± 0.5 µM; CC50 ([6]; Homo sapiens, K562, 72 h, read-out: LC50): 87.9 ± 2 µM; GI50 ([6]; Homo sapiens, K562, K-562, 72 h, MTT): 30.2 ± 2.2 µM; CC50 ([7]; Homo sapiens, read-out: LC50): > 100 µM; GI50 ([7]; Homo sapiens, MTT): 4.7 ± 0.6 µM; CC50 (HTB-54 (lung carcinoma); read-out: LC50): 71.1 ± 3.8 µM; CC50 at 72 h [8]: 8.6 ± 0.5 µM; GI50 ([9]; Homo sapiens): 3.6 ± 0.6 µM
C[Se](=O)O [MSA, Methylseleninic acid, reference compound] | 4.4 ± 1.1 | 8.5 ± 2.4 | 5.4 ± 0.5 | 9.2 ± 1.3 |  |  | 3.5 ± 0.1 | 6.9 ± 0.2 | 6.2 ± 1.2 | 47.6 ± 4.6 | 1.5 ± 0.5 | 9.4 ± 1 | 5.3 ± 1.2 | 13.1 ± 1.3 | 19.9 ± 1.2 | 3.7 ± 0.7 | 8.7 ± 1.8 |  |  |  | reduction by TrxR1 (NADPH consumption) [10]: consistently reduced; reduction by GSH in the presence or absence of glutaredoxin (NADPH consumption) [11]: consistently reduced
Methyl 3-quinolinecarboselenoate [Compound 9] | 5.9 ± 0.5 | 10.0 ± 1.9 | 8.1 ± 1.2 | 6.2 ± 0.4 | 72.6 ± 4.1 | 7.0 ± 0.2 | 7.8 ± 1.2 | 33.0 ± 4.5 | 7.1 ± 4.5 | 84.1 ± 8.9 | 4.4 ± 0.8 | 48 ± 7.5 | 3.7 ± 0.5 | 8.6 ± 0.4 | 69.2 ± 2.7 | 4.1 ± 1 | 15.3 ± 9.1 | more sustained release | 39.5 ± 3.1 | > 100 | GI50 ([7]; MTT): 3.4 ± 0.2 µM; CC50 [7, 13]: 37.2 ± 5 µM
Methyl 6-bromochromone-2-carboselenoate [Compound 11] | 5.3 ± 1.1 | 17.1 ± 5.0 | 8.2 ± 1.1 | 6.7 ± 0.9 | >100 | 9.6 ± 3 | 9.4 ± 3.5 | 52.3 ± 2.9 | 5.0 ± 0.8 | 66.2 ± 2.4 | 4.2 ± 0.7 | > 100 | 3.3 ± 0.1 | 14.5 ± 4.5 | > 100 | 2.4 ± 0.9 | 7.6 ± 0.7 | completely hydrolyzed within the first two hours of incubation | 81.9 ± 4 | > 100 | GI50 ([7]; MTT): 4.9 ± 0.7 µM; CC50 [7, 13]: 74.4 ± 4.2 µM
Methyl 5-isoxazolecarboselenoate [Compound 6] | 4.5 ± 1.3 |  | 8.8 ± 0.7 | 6.0 ± 0.4 | 58.3 ± 3.5 | 15.1 ± 6.7 | 9 ± 2.8 | 43.9 ± 3.9 | 5.6 ± 0.7 | 61.5 ± 14 | 3.5 ± 1 | 71.9 ± 3.2 | 2.7 ± 0.2 | 9.3 ± 2 | 82 ± 1.3 | 3 ± 0.9 | 8.2 ± 0.5 | completely hydrolyzed within the first two hours of incubation | 18.5 ± 7.1 | 98.1 ± 0.7 | GI50 ([7]; MTT): 5 ± 0.8 µM; CC50 [7, 13]: 90.8 ± 15 µM

From PMC6152192, “Novel Methylselenoesters as Antiproliferative Agents” (Molecules : A Journal of Synthetic Chemistry and Natural …, 2017)
